Laboratory results reported in patent publication US7863300B2, “Process to prepare pioglitazone via several novel intermediates” (Cadila Healthcare Limited, priority 2002, dated 2011).

CCc1ccc(C(O)COc2ccc(C=O)cc2)nc1 (stereo not shown) [Compound 9a, 4-[2-(5-Ethyl-pyridin-2-yl)-2-hydroxy-ethoxy]-benzaldehyde]
melting point: 83 °C
